Data published in publication PMC12514245, “Impaired migration and lung invasion of human melanoma by a novel small molecule targeting the transmembrane domain of death receptor p75^NTR” (EMBO Molecular Medicine, 2025).
Where “and” joins values, the source holds several entries; their conditions need not be identical. Equal entries are not always repeated. Entries after “also recorded” stand apart in the source; their conditions may differ. Where two headings read alike, the source gives them in different places.

Key:
[1] = test system: WM115 cells; experiment: Boyden chamber chemotaxis assay, WM115; format: cell-based, human; details: for values normalized to vehicle, mean (Figure 6E): mean of EXP1-3; for values normalized to vehicle (Figure 6E): single experiments EXP1-3
Method: For Boyden chamber assay, Corning® BioCoat™ Matrigel® Invasion Chambers 8.0 µm PET Membrane were used (cat. no. 354480). A875 NT or WM115 cells were serum-starved for 16 h and then seeded at 60,000 cells per well in serum-free media under different conditions, including DMSO (vehicle) or small molecules Div17E5 or Np75-4A22 at different concentrations to the top chamber of the Matrigel-coated trans-well chamber. The pan-caspase inhibitor Q_VD_poH (at 5 µM) was also introduced in the top chamber in some experiments. Two different chemoattractants, NGF (at 50 ng/ml or 100 ng/ml as indicated) or 10% FBS were added to the bottom chamber. Assays were carried out for 8 h after which filters were fixed in 4% PFA and stained with DAPI. Cells that had remained on the top of the filter were gently scrapped away with a cotton tip. The filter lower side was imaged on an inverted fluorescence microscope and counted using ImageJ software (NIH).

[2] = target: TMD of TrkB receptor tyrosine kinase (Homo sapiens, UniProt Q16620); experiment: 2D NMR chemical shift perturbation, TrkB TMD in bicelles; format: binding; details: 4 molar excess compound
Chain of TMD of TrkB receptor tyrosine kinase (Q16620 419-466): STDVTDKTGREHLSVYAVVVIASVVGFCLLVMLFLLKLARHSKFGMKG

[3] = target: TMD of TNF receptor 2 (TNFR2) (Homo sapiens, UniProt P20333); experiment: 2D NMR chemical shift perturbation, TNFR2 TMD in bicelles; format: binding; details: 4 molar excess compound
Chain of TMD of TNF receptor 2 (TNFR2) (P20333 258-290 limits assumed): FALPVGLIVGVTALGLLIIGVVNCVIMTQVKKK

[4] = format: in vivo; details: oral gavage 200 mg/kg daily (5 days on, 2 days off), 3 weeks; female SCID
[5] = test system: A875-shp75 melanoma xenograft; experiment: Melanoma lung invasion assay, A875-shp75, delayed treatment 3 weeks after cell injection; format: in vivo, SCID mice
Method: Finally, we investigated whether delayed administration of Np75-4A22 was able to affect engraftment and growth of metastatic tumors in the lung. To this end, drug treatment (orally at 200 mg/kg) was initiated 3 weeks after intravenous injection of A875-NT or A875-shp75 cells in female SCID mice and continued for additionally 4 weekly cycles (5 days on/2 days off) as above (Fig. 8E). Metastatic spread to the lungs was monitored weekly by bioluminescent imaging of luciferase-expressing melanoma cells. […] We conclude that Np75-4A22 can be efficacious at reducing the spread and seeding of melanoma cells in the lung when administered either before or after cell implantation.
Eight-week-old female SCID mice (Charles River Laboratories, Shrewsbury, MA, USA) were housed in groups of three to five and maintained on a 12-h light/dark schedule with a temperature of 22 °C ± 1 °C and a relative humidity of 50% ± 5%. Food and water were available ad libitum. This research study was reviewed and approved by the University of Calgary Animal Care Committee (AC22-0054) and McGill University (AUP-JGH-8269) and adheres to established ethical principles and guidelines. A875-GFPLuc (A875-NT) or A875-GFPLuc shp75 (A875-shp75) cells harvested using Puck’s EDTA were resuspended in PBS and injected intravenously into SCID mice (5 × 10^5 cells/200 μl per mouse). Np75-4A22 was dissolved in 0.5% sodium carboxymethyl cellulose (NaCMC) in reverse osmosis H2O and administered by oral gavage at 200 mg/kg/day starting one day prior to intravenous (tail vein) injection of tumor cells and continued for 3 1-week cycles (cycle: 5 days on drug, 2 days off drug). Tumor spread to the lung was monitored weekly by luciferase activity using the Xenogen IVIS-200 Optical in vivo luciferase imaging system as described previously (Lun et al, [2016]) and by immunohistochemistry (IHC) at designated time points. IHC was performed after formalin fixation, paraffin embedding and sectioning of the lungs, using a human-specific mouse polyclonal nucleolin antibody (1:500 dilution) and detected using Dako liquid DAB+ Substrate Chromogen System (Dako: k3468, California, USA) followed by a hematoxylin counterstain (Sigma, Oakville, ON, Canada). Sections were mounted and imaged on an Olympus phase contrast microscope (Olympus Life Science, Tokyo, Japan). For immunofluorescence, sections were stained with anti-human nucleolin and anti-human p75NTR antibodies (1:1000 dilution), subsequently detected with 1:200 dilutions of Alexa Fluor™ 488 Goat anti-Mouse IgG (H + L) Highly Cross-Adsorbed Secondary Antibody and Alexa Fluor™ 568 Goat anti-Rabbit IgG (H + L) Cross-Adsorbed Secondary Antibody. Sections were further stained with DAPI to detect all nuclei. Between each treatment, TBS Automation Wash Buffer (Biocare Medical TWB945M) was employed. Images were taken with LSM800 confocal microscope and ZEN system.

[6] = test system: α2β3 integrin TMD; experiment: AraTM assay, α2β3 integrin TMD; format: cell-based; details: for GFP/OD630, A2b, mean: N=3
[7] = target: T1, Matrix-2 protein (M2) TMD (Influenza A virus, UniProt P06821); format: cell-based; details: for GFP/OD630, M2, mean: N=3
T1 construct: unrelated TMDs from α2β3 integrin and Matrix-2 protein (M2); expressed in transfected cells
T1 sequence (P06821 23-43 limits assumed): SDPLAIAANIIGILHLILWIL

Cc1cccc(-c2cncc(Nc3ccc(Br)c(Cl)c3Cl)n2)c1C [Np75-4A22]
values normalized to vehicle, mean (Figure 6E) ([1]; 100 ng/ml NGF & 1 uM 4A22): 1.0063 | values normalized to vehicle (Figure 6E) ([1]; 100 ng/ml NGF & 1 uM 4A22): 0.9175 and 0.9379 and 1.163 | spontaneous migration of WM115 cells ([1]; 1μM): without affecting the spontaneous migration | values normalized to vehicle, mean (Figure 6E) ([1]; 1 uM 4A22): 0.8431 | values normalized to vehicle (Figure 6E) ([1]; 1 uM 4A22): 0.9343 and 0.8878 and 0.7073 | NGF-induced migration of WM115 cells ([1]; 1 μM, NGF 100 ng/ml): blocked this activity | chemical shift perturbations, TrkB TMD [2]: mostly non-specific interaction; also recorded: no or minimal chemical shift perturbations | chemical shift perturbations, TNFR2 TMD [3]: essentially no interaction; also recorded: no or minimal chemical shift perturbations | mortality, clinical signs and gross histological pathology [4]: No mortality or adverse clinical signs | Average Photons/second/week, wk2 ([5]; group average, wk2): 9.88E+04 Photons/second | Average Photons/second/week, wk3 ([5]; group average, wk3): 1.46E+05 Photons/second | Average Photons/second/week, wk4 ([5]; group average, wk4): 1.10E+05 Photons/second | Average Photons/second/week, wk5 ([5]; group average, wk5): 2.77E+05 Photons/second | Average Photons/second/week, wk6 ([5]; group average, wk6): 4.60E+05 Photons/second | Average Photons/second/week, wk7 ([5]; group average, wk7): 1.10E+06 Photons/second | Photons/second/ mouse/week, wk2 ([5]; individual mouse, wk2): 1.05E+05 Photons/second and 6.22E+04 Photons/second and 8.27E+04 Photons/second and 9.38E+04 Photons/second and 1.02E+05 Photons/second and 8.99E+04 Photons/second and 1.49E+05 Photons/second and 1.09E+05 Photons/second and 9.56E+04 Photons/second | Photons/second/ mouse/week, wk3 ([5]; individual mouse, wk3): 1.10E+05 Photons/second and 1.18E+05 Photons/second and 1.42E+05 Photons/second and 1.47E+05 Photons/second and 1.39E+05 Photons/second and 1.86E+05 Photons/second and 1.67E+05 Photons/second and 1.65E+05 Photons/second and 1.36E+05 Photons/second | Photons/second/ mouse/week, wk4 ([5]; individual mouse, wk4): 1.43E+05 Photons/second and 9.53E+04 Photons/second and 1.42E+05 Photons/second and 1.00E+05 Photons/second and 1.24E+05 Photons/second and 1.66E+05 Photons/second and 4.36E+04 Photons/second and 7.52E+04 Photons/second and 1.02E+05 Photons/second | Photons/second/ mouse/week, wk5 ([5]; individual mouse, wk5): 1.26E+05 Photons/second and 1.70E+05 Photons/second and 1.58E+05 Photons/second and 1.31E+05 Photons/second and 1.75E+05 Photons/second and 1.89E+05 Photons/second and 1.28E+05 Photons/second and 4.29E+05 Photons/second and 9.90E+05 Photons/second | Photons/second/ mouse/week, wk6 ([5]; individual mouse, wk6): 2.09E+05 Photons/second and 1.96E+05 Photons/second and 2.02E+05 Photons/second and 2.61E+05 Photons/second and 6.18E+04 Photons/second and 1.19E+05 Photons/second and 3.83E+05 Photons/second and 2.25E+06 Photons/second | Photons/second/ mouse/week, wk7 ([5]; individual mouse, wk7): 1.96E+05 Photons/second and 1.65E+05 Photons/second and 3.28E+05 Photons/second and 1.98E+06 Photons/second and 3.78E+06 Photons/second

Oc1ccc(-c2cncc(Nc3ccc(Br)c(Cl)c3)n2)cc1 [Div17E5]
GFP/OD630, A2b, single replicates ([6]; Div17E5 1 μM): 111 and 92 and 98 | GFP/OD630, A2b, mean ([6]; Div17E5 1 μM): 100 | GFP/OD630, A2b, single replicates ([6]; Div17E5 2.5 μM): 89 and 116 and 95 | GFP/OD630, A2b, mean ([6]; Div17E5 2.5 μM): 100 | GFP/OD630, A2b, single replicates ([6]; Div17E5 5 μM): 95 and 87 and 112 | GFP/OD630, A2b, mean ([6]; Div17E5 5 μM): 98 | GFP/OD630, A2b, single replicates ([6]; Div17E5 10 μM): 81 and 96 and 87 | GFP/OD630, A2b, mean ([6]; Div17E5 10 μM): 88 | GFP/OD630, A2b, single replicates ([6]; Div17E5 20 μM): 90 and 98 and 82 | GFP/OD630, A2b, mean ([6]; Div17E5 20 μM): 90 | GFP/OD630, A2b, single replicates ([6]; Div17E5 50 μM): 79 and 86 and 94 | GFP/OD630, A2b, mean ([6]; Div17E5 50 μM): 86 | GFP/OD630, M2, single replicates ([7]; Div17E5 1 μM): 96 and 90 and 113 | GFP/OD630, M2, mean ([7]; Div17E5 1 μM): 100 | GFP/OD630, M2, single replicates ([7]; Div17E5 2.5 μM): 94 (2×) and 111 | GFP/OD630, M2, mean ([7]; Div17E5 2.5 μM): 100 | GFP/OD630, M2, single replicates ([7]; Div17E5 5 μM): 89 and 109 and 92 | GFP/OD630, M2, mean ([7]; Div17E5 5 μM): 97 | GFP/OD630, M2, single replicates ([7]; Div17E5 10 μM): 90 and 105 and 99 | GFP/OD630, M2, mean ([7]; Div17E5 10 μM): 98 | GFP/OD630, M2, single replicates ([7]; Div17E5 20 μM): 109 and 89 and 98 | GFP/OD630, M2, mean ([7]; Div17E5 20 μM): 99 | GFP/OD630, M2, single replicates ([7]; Div17E5 50 μM): 112 and 92 and 109 | GFP/OD630, M2, mean ([7]; Div17E5 50 μM): 104
